Experimental findings from ChEMBL document CHEMBL1201862, “PubChem BioAssay data set” (2004) are described below.

Each structure is given as a SMILES string.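 Protocol summary: plate cells (96-well), add compound at 5 concentrations, incubate 48 h, interpolate endpoints linearly. GI50 = concentration required for 50% inhibition of growth.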 Active and inactive are the calls of the source. Cut-off read from the data, not from the text of the source: active = GI50 up to about 1.1 µM and inactive = higher.

Among the test systems are OVCAR-5; MCF7; HOP-92; COLO 205; HOP-62; TK-10; HCC 2998; HT-29; SF-295; NCI-H522; ACHN; SF-268; SNB-75; NCI-H460; HCT-116; OVCAR-3; UACC-62; MOLT-4; RXF 393; A498.
Assay in all cases: inhibition of tumour cell growth, NCI panel, 48 h

On to `NS(=O)(=O)c1ccc(NNc2c3ccccc3nc3c(C(=O)Nc4ccc(S(=O)(=O)Nc5ncccn5)cc4)cccc23)cc1`, for which the GI50 in the test on OVCAR-5, in the test with MCF7, in the test with HOP-92, in the test on COLO 205, with HOP-62 and with TK-10 was > 25 µM (inactive) throughout. The GI50 in the test on HCC 2998 is > 25 µM (inactive); with HT-29, 10.2 µM (inactive); with SF-295, > 25 µM (inactive); in the test with NCI-H522 it was > 25 µM (inactive); in the test on ACHN it was > 25 µM (inactive); in the test on SF-268 it was > 25 µM (inactive). The GI50 in the test on SNB-75 is 20.2 µM (inactive); in the test on NCI-H460 it was > 25 µM (inactive); with HCT-116 it was > 25 µM (inactive); in the test with OVCAR-3 it was > 25 µM (inactive); in the test with UACC-62, > 25 µM (inactive); in the test with MOLT-4 it was > 25 µM (inactive). For the same compound, in the test with RXF 393, the GI50 was > 25 µM (inactive).
As for `O=P(O)(Cc1ccccc1)c1ccccc1-c1ccccc1`, the GI50 in the test on OVCAR-5 is > 100 µM (inactive); in the test on MCF7 it was > 100 µM (inactive); in the test with COLO 205, 57.8 µM (inactive); in the test on HOP-62, > 100 µM (inactive); in the test with TK-10, > 100 µM (inactive); in the test on HCC 2998, > 100 µM (inactive). Moreover, the GI50 with HT-29, in the test with SF-295, in the test on NCI-H522, in the test on ACHN, in the test with SF-268 and in the test with SNB-75 was > 100 µM (inactive) in each case. Also, the GI50 with NCI-H460 was 62.7 µM (inactive); with HCT-116, > 100 µM (inactive); in the test with UACC-62, > 100 µM (inactive); with MOLT-4, > 100 µM (inactive); in the test on RXF 393 it was 54.6 µM (inactive).
On to `Oc1ccc2ccccc2c1Cc1c(O)ccc2ccccc12`, for which the GI50 with OVCAR-5 is 15.6 µM (inactive); in the test on MCF7, 21.8 µM (inactive); with COLO 205 it was 17.9 µM (inactive); in the test on A498, 18.2 µM (inactive); with HOP-62, 16.4 µM (inactive); in the test on TK-10, 21 µM (inactive). Also, the GI50 was 17.4 µM (inactive) in the test with HCC 2998; 22.1 µM (inactive) in the test with HT-29; 16.7 µM (inactive) in the test on SF-295; 10.7 µM (inactive) in the test on NCI-H522; 17.3 µM (inactive) in the test with ACHN; 14 µM (inactive) in the test on SF-268. In addition, the GI50 is 20.5 µM (inactive) in the test with SNB-75; 26.5 µM (inactive) in the test on NCI-H460; 16.1 µM (inactive) with HCT-116; 11.2 µM (inactive) in the test with OVCAR-3; 14 µM (inactive) in the test with UACC-62; 15 µM (inactive) in the test on MOLT-4. For the same compound, in the test on RXF 393, the GI50 was 16 µM (inactive).
Take `Nc1ccc(Cn2ccc3c4c(N)nc(N)nc4ccc32)cc1`: the GI50 was 0.0224 µM (active) in the test with OVCAR-5; 0.0351 µM (active) with MCF7; 0.71 µM (active) in the test with HOP-92; 0.628 µM (active) in the test with COLO 205; 0.0141 µM (active) in the test on HOP-62; 1.58 µM (inactive) with TK-10. The GI50 with HCC 2998 is < 0.0268 µM (active); with HT-29 it was < 0.01 µM (active); in the test with SF-295, < 0.01 µM (active); in the test with NCI-H522, 0.0847 µM (active); with ACHN it was < 0.01 µM (active); in the test with SF-268, < 0.0156 µM (active). Besides, the GI50 in the test with SNB-75 is 0.804 µM (active); in the test with NCI-H460, < 0.01 µM (active); with HCT-116 it was < 0.01 µM (active); with OVCAR-3, 0.431 µM (active); in the test with UACC-62, < 0.01 µM (active); with MOLT-4, < 0.0122 µM (active). Also, the GI50 with RXF 393 is 0.118 µM (active).
In the case of `CCC(C)[C@@H](NC1=C(Cl)C(=O)c2c(O)ccc(O)c2C1=O)C(=O)OC` (some centres undefined), the GI50 in the test on OVCAR-5 was 5.12 µM (inactive); in the test on MCF7, 3.61 µM (inactive); in the test on HOP-92, > 10 µM (inactive); in the test with COLO 205, 2.13 µM (inactive); with HOP-62, 3.51 µM (inactive); in the test with TK-10, > 10 µM (inactive). Further, the GI50 was > 10 µM (inactive) with HCC 2998; 3.01 µM (inactive) with HT-29; 4.92 µM (inactive) in the test with SF-295; 2.67 µM (inactive) with NCI-H522; 3.91 µM (inactive) in the test on ACHN; 3.7 µM (inactive) in the test on SF-268. The GI50 in the test with SNB-75 is 7.26 µM (inactive); in the test with NCI-H460 it was 2.64 µM (inactive); with HCT-116, 2.4 µM (inactive); in the test on OVCAR-3 it was 2.79 µM (inactive); in the test on UACC-62 it was 3.37 µM (inactive); in the test on MOLT-4, 1.47 µM (inactive).
Turning to `Cc1nn(C(=O)Cc2ccccc2)c2c1C(c1ccc3ccccc3c1O)SC(=N)N2` (centres undefined), the GI50 in the test on MCF7, with COLO 205, with A498, in the test on HOP-62, in the test with TK-10 and in the test on HCC 2998 was > 100 µM (inactive) in each case. The GI50 in the test on HT-29 is > 100 µM (inactive); in the test with SF-295 it was > 100 µM (inactive); in the test with NCI-H522, 67.8 µM (inactive); in the test with ACHN it was > 100 µM (inactive); with SF-268, > 100 µM (inactive); in the test on SNB-75, 52.1 µM (inactive). In addition, the GI50 is > 100 µM (inactive) in the test on NCI-H460, > 100 µM (inactive) with HCT-116, > 100 µM (inactive) in the test with UACC-62 and 37.8 µM (inactive) in the test with MOLT-4.
For `[N-]=[N+]=NC[C@H]1OCO[C@H](CN=[N+]=[N-])[C@H]2OCCOCCOc3ccccc3OCCOCCO[C@@H]21`, the GI50 in the test with MCF7, with COLO 205, in the test on HOP-62, in the test with TK-10, in the test on HCC 2998 and in the test on HT-29 was > 100 µM (inactive) throughout. Also, the GI50 with SF-295 is > 100 µM (inactive); in the test on NCI-H522, > 100 µM (inactive); in the test on SF-268, > 100 µM (inactive); in the test on SNB-75 it was 76.4 µM (inactive); in the test on NCI-H460, > 100 µM (inactive); in the test on HCT-116 it was > 100 µM (inactive). The GI50 in the test with OVCAR-3, in the test on UACC-62, with MOLT-4 and in the test with RXF 393 was > 100 µM (inactive) throughout.
As for `COC(OC)(c1ccccc1)C(Br)Br`, the GI50 with OVCAR-5 is > 100 µM (inactive); with MCF7, 39 µM (inactive); in the test on COLO 205, 17.3 µM (inactive); with A498, > 100 µM (inactive); in the test with HOP-62, > 100 µM (inactive); in the test on HCC 2998 it was > 100 µM (inactive). The GI50 is 57.4 µM (inactive) in the test with HT-29; > 100 µM (inactive) in the test on SF-295; 17.8 µM (inactive) in the test with NCI-H522; > 100 µM (inactive) with ACHN; 42.6 µM (inactive) in the test on SF-268; 81.1 µM (inactive) in the test with SNB-75. Further, the GI50 in the test with NCI-H460 is > 100 µM (inactive); in the test on HCT-116 it was 17.9 µM (inactive); in the test on OVCAR-3, 48.3 µM (inactive); with UACC-62, 55.1 µM (inactive); in the test on MOLT-4, 16.1 µM (inactive).
In the case of `NCCN/C(=N\c1ccccc1)Nc1ccccc1`, the GI50 with MCF7, in the test with COLO 205, in the test on HOP-62, in the test with TK-10, in the test on HCC 2998 and in the test on HT-29 was > 100 µM (inactive) throughout. For the same compound, the GI50 in the test with SF-295 is > 100 µM (inactive); with NCI-H522, 68.4 µM (inactive); in the test on SF-268, > 100 µM (inactive); in the test with SNB-75, 72.6 µM (inactive); in the test on NCI-H460 it was > 100 µM (inactive); in the test with HCT-116, 94.2 µM (inactive). Also, the GI50 with OVCAR-3 is > 100 µM (inactive); in the test with UACC-62 it was > 100 µM (inactive); in the test with MOLT-4, > 100 µM (inactive); with RXF 393 it was 24.3 µM (inactive).
Turning to `C=C(Br)CN(C#N)CC(=C)Br`, the GI50 in the test with OVCAR-5, in the test with MCF7, with COLO 205, in the test on A498, with HOP-62 and in the test with TK-10 was > 100 µM (inactive) in each case. For the same compound, the GI50 with HCC 2998, with HT-29, in the test with SF-295, in the test with NCI-H522, in the test on ACHN and in the test with SF-268 was > 100 µM (inactive) in each case. Also, the GI50 with SNB-75, in the test with NCI-H460, in the test on HCT-116, with OVCAR-3, with UACC-62 and in the test with MOLT-4 was > 100 µM (inactive) throughout. In addition, the GI50 in the test with RXF 393 was > 100 µM (inactive).
Turning to `Cn1c2ccccc2n2c(=O)c3cc([N+](=O)[O-])ccc3c(C#N)c12`, the GI50 in the test on OVCAR-5 is > 100 µM (inactive); in the test with MCF7, > 100 µM (inactive); in the test on COLO 205, > 100 µM (inactive); in the test with HOP-62, 27.5 µM (inactive); in the test with TK-10, > 100 µM (inactive); in the test with HCC 2998, > 100 µM (inactive). Further, the GI50 in the test with HT-29 was > 100 µM (inactive); in the test on SF-295 it was 83.2 µM (inactive); in the test with NCI-H522, > 100 µM (inactive); with ACHN, 75.3 µM (inactive); in the test with SF-268, > 100 µM (inactive); in the test on SNB-75 it was 56.2 µM (inactive). Besides, the GI50 with NCI-H460, in the test on HCT-116, in the test on OVCAR-3, in the test on UACC-62, in the test on MOLT-4 and in the test with RXF 393 was > 100 µM (inactive) each time.
